Test results reported in patent publication US6756504B2, “Sphingolipids” (Yissum Research Development Company of the Hebrew …, priority 2000, dated 2004).

Tests used:
Assay type in all cases: cell-based, Human
[1] = system: Bod3-SPM (sphingomyelin) synthesis in HL60 cells; assay: Sphingolipid metabolism from Bodipy-C3-ceramide: Bod3-SPM in HL60; settings: HL60, 3 hours, 2.5 μM Bodipy-C3-ceramide; read-out: od 3-SPM (IC50 for reduction of Bod3-SPM, cell+medium)
Procedure: (§1) In order to examine the effect of the different compounds on sphingolipids metabolism, different cell lines were incubated with increasing concentrations of different compounds of the invention in the presence of 2.5 μM Bodipy-C3-ceramide that was added to the culture medium as a solution in dimethylsulfoxide (not exceeding 0.1% DMSO of the final volium). After 3 hours, cells and medium were collected and centrifuged. Cells were next extracted with chloroform-methanol containing 2% acetic acid 1:1 (by volume) and the medium was shaken with an equal volume of chloroform-methanol, 1:1 (by volume). The phases were separated by centrifugation and the lower chloroform phase was collected. The solvents were evaporated and applied to thin layer chromatography silica gel plates (Whatman 4865-821) with a concentrating zone.
(§2) Plates were developed as follows: For medium: in chloroform-methanol-H2O, 75:25:4 by volume. For cells: plates were first developed with chloroform-methanol, 9:1, then dried and re-run in chloroform-methanol: H2O, 65:35:4.
(§3) Standards of Bodipy-C3-ceramide: Bodipy-C3-glucosylceramide (Bod3-GC) and Bodipy C3 sphingomyelin (Bod3-SPM) were used as markers. The fluorescence of the respective Bod3-SPM and Bod3-GC spots was quantified using a Fuji FLA-2000 scanner.

[2] = system: Bod3-SPM synthesis in MCF-NCi cells; assay: Sphingolipid metabolism: Bod3-SPM in MCF-NCi; settings: 3 hours, 2.5 μM Bodipy-C3-ceramide, read-out: od 3-SPM (IC50 for reduction of Bod3-SPM)
Procedure: as §1, §2, §3

[3] = system: Bod3-GC (glucosylceramide) synthesis in HL60 cells; assay: Sphingolipid metabolism from Bodipy-C3-ceramide: Bod3-GC in HL60; settings: HL60, 3 hours, 2.5 μM Bodipy-C3-ceramide; read-out: od 3-GC (IC50 for Bod3-GC reduction)
Procedure: as §1, §2, §3

HL60 cells = assay: Apoptosis in HL60 cells, propidium iodide flow cytometry (FACS)
Procedure: The apoptotic effect of three different compounds was further examined on HL60 cells using a flow cytometry method. […] Washed cells were then treated with 5% Triton and stained with propidium iodide 0.5% mg in 0.1% sodium citrate pH 7.4. Analysis was performed using a Becton Dickinson Fluorescence Activated Cell Sorter (FACS).

**Q.** With `CCCCCCNc1ccc([C@@H](O)[C@@H](CO)NCCCCCC)cc1` [AD-2665, (2R,3R)-2-(N-hexylamine)-1-(4-N-hexylaminophenyl)-1,3-propanediol] as the compound, how does the IC50 [1] read?
**A.** 4 µM

**Q.** And the IC50 [2]?
**A.** 7 µM

**Q.** What about the IC50 [3] of the same compound?
**A.** 5 µM

**Q.** And the apoptotic cells (HL60 cells; HL60, 30 min, 40 μM)?
**A.** 5%

**Q.** And the apoptotic cells (HL60 cells; HL60, 3 hours, 10 μM)?
**A.** about 8%

**Q.** What about the apoptotic cells (HL60 cells; HL60, 3 hours, 20 μM) of the same compound?
**A.** 26%

**Q.** And the apoptotic cells (HL60 cells; HL60, 24 hours, 10 μM)?
**A.** 25%
